Series [1] can be described thus: WST-1 cytotoxicity / cell viability assay. The format is cell-based, human. The following applies: human, HEK293 cells, log-probit on percentage mortality, read-out: LC50. The procedure: (§1) Human embryonic kidney 293 (HEK293) and CACO2 cells were purchased from ATCC. Cells were cultured in DMEM (Corning, USA) supplemented with 10% FBS (Gibco, USA) and 1% penicillin/streptomycin (Gibco, USA). SH-SY5Y cells were gifted by Dr. Dong-Hyung Cho's laboratory in the Dept. of Life Science at Kyungpook National University and were grown in DMEM with high glucose (Gibco, USA). Cells were grown to 80–90% confluence in a 10 cm plate before splitting into a 96 well plate. […] After 48 h incubation, 10% (v/v) of water soluble tetrazolium salt (WST, DoGen Inc., South Korea) was added to each well, following the manufacturer's instruction. Orange color development for enzyme-substrate reaction was monitored, using spectrophotometry at 450 nm (Tecan Sunrise, Switzerland).
(§2) One-way ANOVA, followed by a post-hoc Tukey's HSD test, was used to determine differences in toxicity, and repellency percentages (P < 0.05) (SAS for Window release 6, SAS Institute). All percentage mortality data were corrected using Abbott's formula ([Abbott, 1987]). […] Adult repellency percentage was calculated using the formula PR (%) = [(C-T)/(C + T)] × 100 ([Liu et al., 2013]). All analyses were performed in SAS version 9.4. All the graphs were drawn with SigmaPlot 12.5 (Systat Software, Inc., San Jose, CA, USA).
(§3) As the safety of agricultural products and foods became a major concern and issue in the modern society, validating the effects of pesticides on human physiology and setting the safety limits of their use is important ([Fan and Jackson, 1989]; [Kim et al., 2017]). […] WST-1 is a substrate of mitochondrial dehydrogenases and is converted to a colored dye called formazan in viable cells. Because the intensity of dye is proportional to the amount of enzyme, WST-1 reagent cell proliferation assay is widely used to measure the cell viability ([Ngamwongsatit et al., 2008]).

The subject of a further series is HEK293 cells. The experiment in a line: WST-1 cytotoxicity / cell viability assay. The format is cell-based, human. Here is the method:
as §1, §2, §3
In general terms: Tetrazolium dyes change colour on reduction, which living cells bring about.

Series [2] in a line: WST-1 cytotoxicity / cell viability assay. The class given is cell-based, human. The note with it: human, SH-SY5Y cells, log-probit on percentage mortality, read-out: LC50. Here is the method: as §1, §2
(§4) It has also been used as a preservative for cosmetic products. In addition, it was reported that methylparaben is a chemical compound present in local anesthetic that can alter the function of the human nervous system ([Nathan and Sears, 1961]).

The next series concerns SH-SY5Y cells. The series can be described thus: WST-1 cytotoxicity / cell viability assay. The format is cell-based, human. The procedure: as §1, §2, §4
In the next series the test system is CCNB1 (cyclin B1). The series can be described thus: Real-time PCR, cyclin B1 mRNA expression in HEK293 cells. The class given is cell-based, human. The following applies: HEK293, 48 h, MB 4.4 mM, EB 1.7 mM, VB 1.7 mM, ACTIN reference. The procedure:
(§5) HEK293 and SH-SY5Y cells were grown to 60–70% confluence in 6 well plates and the media were exchanged with the ones including the chemicals, MB, EB, or VB in the given concentrations. After 48 h incubation, the cells were washed with cold PBS once and scraped. The cells were washed again with cold PBS twice before extracting total RNA molecules using Qiagen RNeasy kit. cDNAs were constructed from 600 ng of the collected RNAs using Reverse Transcription System (Promega, Japan). cDNA was analyzed through real-time quantifying PCR using SYBR Green Realtime PCR Master Mix (Toyobo, Japan) according to the manufacturer's instructions (CFX96 Touch Real-time PCR System, Bio-Rad).
(§6) Further, we prompted to assess whether the gene expression of cell cycle and stress regulators such as cyclins and HSP70 is affected by MB, EB, and VB. These chemicals were applied to the HEK293 or SH-SY5Y cells at the concentrations of 4.4 mM [0.06% MB, 0.05% (3.7 mM) for SH-SY5Y cells], 1.7 mM (0.025%, EB), and 1.7 mM (0.025%, VB), respectively, for 48 h before extracting the total RNAs from the cells. The concentrations were chosen based on the LC50 values, approximately a third of the values, that would not cause cell death but could influence the gene expression in the tested cells. mRNAs of HSP70, CCNB1 (cyclin B1), and CCND1 (cyclin D1) were quantified by real-time PCR with ACTIN as a reference gene. Cyclin B1 is a checkpoint regulator for S/G2 transition, whereas cyclin D1 is for G1 progression ([Baldin et al., 1993]; [Hwang et al., 1995]). […] The mRNA expression of HSP70, a stress-inducible gene ([Huang et al., 2001]), decreased in MB-, EB-, and VB-treated HEK293 cells, and VB-treated samples showing the least expression (Figure 4A). […] For SH-SY5Y cells, we also measured the mRNA expression of AChE, acetylcholinesterase gene ([Dvir et al., 2010]), because of the similar structure of these chemicals to methylparaben ([Nathan and Sears, 1961]) and of the fact that MB has been reported to have a repellent effect against some insect pests such as Bemisia tabaci (Gennadius) ([Mostafiz et al., 2018]).

Series [3] relates to HSP70. The series can be described thus: Real-time PCR, HSP70 mRNA expression in HEK293 cells. The format is cell-based, human. The following applies: HEK293, 48 h, MB 4.4 mM, EB 1.7 mM, VB 1.7 mM, ACTIN reference. The procedure:
as §5, §6
For orientation: Real-time PCR tracks product formation cycle by cycle.

The test system of series [4] is HSP70, CCNB1 (cyclin B1), and CCND1 (cyclin D1). The series can be described thus: Real-time PCR, HSP70, CCNB1 and CCND1 mRNA expression in SH-SY5Y cells. The class given is cell-based, human. The following applies: 48 h, MB 3.7 mM, EB 1.7 mM, VB 1.7 mM. The procedure: as §5, §6
Series [5] deals with AChE, acetylcholinesterase gene. The experiment in a line: Real-time PCR, AChE mRNA expression in SH-SY5Y cells. The format is cell-based, human. The note with it: 48 h, MB 3.7 mM, EB 1.7 mM, VB 1.7 mM. Here is the method:
as §5, §6

A short description of series [6]: WST-1 cytotoxicity / cell viability assay. The following applies: human, CACO2 cells; CACO2, WST assay, log-probit on percentage mortality; read-out: LC50. The class given is cell-based, human. The procedure:
as §1, §2
(§7) Ingested residual pesticides from agricultural foods may stay in the colon for a longer time than any other organs.

A further series concerns CACO2 cells. The series can be described thus: WST-1 cytotoxicity / cell viability assay. The class given is cell-based, human. The note with it: for reduction in CACO2 cells in the WST-1 assay: acetone-T20 solvent. The procedure:
as §1, §2, §7

A short description of series [7]: Crystal violet cell staining assay. The class given is cell-based. The note with it: human, HEK293 cells, in agreement with WST-1, read-out: upper limit of MB concentration for HEK293 cell viability. Here is the method: For the crystal violet experiment, cells were split into a 96 well and MB was applied to each well as described above and then HEK293 cells were grown for 1–2 days and CACO2 cells for 4–5 days. Crystal violet staining method published by M. [Feoktistova et al., (2016)] was used without modifications. The resultant plate was taken picture of. In addition, the stained cells were dissolved in methanol and the intensity of color was measured at 595 nm (Tecan Sunrise, Switzerland).

Series [8] is described as follows: Visual observation of aggregates in cell culture media. The class given is physicochemical. The following applies: MB higher than 5.5 mM (0.075%) applied to the media; persisted with T20. The procedure:
Therefore, we aimed to identify an upper limit of MB concentration between 0.1 and 11 mM (0.001% and 0.15%) where the growth of HEK293 cells was less affected. Seven MB concentrations, 0, 0.1, 0.7, 3.7, 5.5, 7.0, 11 mM (0%, 0.001%, 0.01%, 0.05%, 0.075%, 0.1%, and 0.15%), were applied to HEK293 cells and the WST-1 experiment was performed. […] This might be because of the hydrophobicity of MB which causes it to form aggregates facilitated by the aqueous condition in the cell culture media. […] The WST-1 data were similar to the results without T20, except for 5.5 mM MB. […] We attributed the increased sensitivity of MB concentration 5.5 mM (0.075%) in the acetone-T20 solvent to the synergistic cytotoxic effect in the presence of the detergent, T20 with MB or the enhanced solubility of MB.

The next series concerns CCND1 (cyclin D1). The series can be described thus: Real-time PCR, cyclin D1 mRNA expression in HEK293 cells. The format is cell-based, human. The following applies: HEK293, 48 h, VB 1.7 mM, ACTIN reference. Here is the method: as §5
Further, we prompted to assess whether the gene expression of cell cycle and stress regulators such as cyclins and HSP70 is affected by MB, EB, and VB. These chemicals were applied to the HEK293 or SH-SY5Y cells at the concentrations of 4.4 mM [0.06% MB, 0.05% (3.7 mM) for SH-SY5Y cells], 1.7 mM (0.025%, EB), and 1.7 mM (0.025%, VB), respectively, for 48 h before extracting the total RNAs from the cells. The concentrations were chosen based on the LC50 values, approximately a third of the values, that would not cause cell death but could influence the gene expression in the tested cells. mRNAs of HSP70, CCNB1 (cyclin B1), and CCND1 (cyclin D1) were quantified by real-time PCR with ACTIN as a reference gene. […]

Series [9] deals with HSP70. The series can be described thus: Western blot, HSP70 protein level in HEK293 cells. The format is cell-based, human. The following applies: HEK293, VB 1.7 mM (250 ppm), α-Tubulin loading control. The procedure: HEK293 cells grown in 6 well plates for Western blots and SDS polyacrylamide gel electrophoresis (SDS-PAGE) were washed with cold PBS twice and scraped in RIPA buffer (Cell Signaling, Cat. 9806, USA). Protein concentration in each sample was measured through Bradford assay using Bio-Rad Protein Assay Dye Reagent Concentrate (Bio-Rad #5000006) and spectrophotometry at 595 nm (Tecan Sunrise™ Absorbance Microplate Reader, Switzerland). From the measured protein concentration, a total of 15 μg of proteins per each sample were loaded on 7% SDS-PA gels, blotted onto nitrocellulous membrane, and probed for HSP70 and α-Tubulin using corresponding antibody (HSP70, Santa Cruz sc-32239; α-Tubulin, Santa Cruz sc-8035) in Western blot assay.
Further, we prompted to assess whether the gene expression of cell cycle and stress regulators such as cyclins and HSP70 is affected by MB, EB, and VB. […] The concentrations were chosen based on the LC50 values, approximately a third of the values, that would not cause cell death but could influence the gene expression in the tested cells. mRNAs of HSP70, CCNB1 (cyclin B1), and CCND1 (cyclin D1) were quantified by real-time PCR with ACTIN as a reference gene. […]

[10] abbreviates: log-probit on percentage mortality.
The mark [11] stands for this setting: log-probit on percentage mortality, read-out: LC50 (the source's name).

Where two headings read alike, the source gives them in different places.

Experimental findings from article PMC7005452 (Heliyon, 2020) are described below.

Regarding `CCOC(=O)c1ccccc1` [EB, ethyl benzoate], the values for the CC50 at 48 h in series [1] and in series [2] were 6.9 mM and 7.3 mM, respectively. In addition, the figures for the LC50 in the series with HEK293 cells (setting [10]) and with SH-SY5Y cells (setting [10]) were 0.104% and 0.11%, respectively. Moreover, the “cyclin B1 mRNA expression compared with solvent control” value in the series on CCNB1 (cyclin B1) was “rarely differentiated”. In the series on HSP70 [3], the “HSP70 mRNA expression compared with solvent control” value is reported as “decreased”. In [4], the “mRNA expression of HSP70, CCNB1 and CCND1” value (shortened to “mRNA expression of HSP70”) is “did not display notable differential expressions”. For the same molecule, in [5], the “AChE mRNA expression” value is “hardly any change”.

Take `COC(=O)c1ccccc1` [MB, Methyl benzoate]: the CC50 at 48 h in series [1] was 13.2 mM; in series [6], 20.6 mM; in [2] it was 11 mM. Also, the LC50 is recorded as 0.18% in the series on HEK293 cells (setting [10]); 0.28% in the series on CACO2 cells (CACO2, WST assay, log-probit on percentage mortality); 0.15% with SH-SY5Y cells (setting [10]). The “reduction in CACO2 cells in the WST-1 assay” value in the series on CACO2 cells (CACO2, MB 3.7 mM (0.05%)) is “about 30%”; with CACO2 cells (CACO2, MB 7.3 mM (0.1%)), more than 90%. Also, the viability in [7] was not above 0.05%. Further, the “cyclin B1 mRNA expression compared with solvent control” value in the series on CCNB1 (cyclin B1) is reported as “rarely differentiated”. Moreover, the “HSP70 mRNA expression compared with solvent control” value in the series with HSP70 [3] is given as “decreased”. Further, the “mRNA expression of HSP70” value in [4] was “did not display notable differential expressions”. In series [5], the “AChE mRNA expression” value is “hardly any change”. Moreover, in series [8], the “aggregate formation in cell culture media” value was “formed silver-colored aggregates”.

For `C=COC(=O)c1ccccc1` [VB, vinyl benzoate], the “relative toxicity among MB, EB and VB” value in the series on HEK293 cells and in the series on SH-SY5Y cells was “most toxic” throughout. Also, the LC50 in the series on HEK293 cells (setting [10]) stood at 0.08%; in the series with SH-SY5Y cells (setting [10]), 0.09%. In addition, the results for the CC50 in the series with HEK293 cells (setting [11]) and in the series on SH-SY5Y cells (setting [11]) were 5.4 mM and 6.1 mM, respectively. For the same molecule, the “cyclin B1 mRNA expression compared with solvent control” value in the series on CCNB1 (cyclin B1) was “rarely differentiated”. Further, the “cyclin D1 mRNA expression compared with solvent control” value with CCND1 (cyclin D1) is recorded as “noticeable reduction”. In the series with HSP70 [3], the “HSP70 mRNA expression compared with solvent control” value was “decreased”. In addition, in the series on HSP70 [9], the HSP70 protein level result is “consistently decreased”. In addition, in series [4], the “mRNA expression of HSP70” value was “did not display notable differential expressions”. Besides, the “AChE mRNA expression” value in series [5] was “mild increase”.
